Measured values taken from patent US9789096B2, “Methods and compositions for selective and targeted cancer therapy” (Board of Regents of the University of Texas System, priority 2013, dated 2017).
Where two headings read alike, the source gives them in different places.

Assays:
Format in all cases: cell-based, human
[1] = test system: H2122; experiment: Cell viability dose-response, H2122; settings: for AC50: NCI-H2122, Table 8, 12-point dose-response starting at 50 micromolar
Outline: (§1)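 Cells plated at 15% confluence in RPMI-1640 with 5% FBS and 2 mM L-glutamine, treated with compound in a 12-point, 3-fold dilution series from 50 micromolar, in duplicate. ATP measured by Cell Titer Glo after 4 days; IC50 taken from the dose-response curve.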

[2] = test system: H1819; experiment: Cell viability dose-response, H1819; settings: Homo sapiens; for IC50: NCI-H1819, Tables 3 and 4, read-out: IC50 (uM) vs indicated non-small cell lung cancer cell line H1819; for AC50: NCI-H1819, Table 8, 12-point dose-response starting at 50 micromolar
Outline: as §1

[3] = test system: H2073; experiment: Cell viability dose-response, H2073; settings: for AC50: NCI-H2073, Table 8, 12-point dose-response starting at 50 micromolar
Protocol: (§2) FIG. 6A. […] Cell viability is plotted vs. compound concentration. Compound was added to cells plated at 15% confluence in 96-well plates in RPMI-1640 media supplemented with 5% Fetal Bovine Serum and 2 mM L-Glutamine. After 4 days of incubation, ATP levels were measured using Cell Titer Glo (Promega). Data are presented as the average of 2 replicates ±SEM.
(§3) Selectivity may be measured by the half maximal inhibitory concentration (IC50), which, as used herein, is a measure of the effectiveness of a compound in killing cells. This quantitative measure indicates how much of a particular compound is needed to kill a particular cell population by half (e.g., as indicated by the amount of ATP). […] The IC50 can be determined by constructing a dose-response curve. The lower the IC50, the higher the potency, and the greater the difference between IC50 values for different cell lines (e.g., sensitive lines vs. insensitive lines, and sensitive lines vs. normal lines) the greater the selectivity. […]
(§4) With this information, we synthesized and tested a series of small molecules derived in conception from the oxalamide and chromone scaffold including N-acyl ureas, as shown in Tables 6-8. Each compound was tested in a 12-point dose-response study starting at 50 micromolar and decreasing in 3-fold increments to sub-nanomolar concentrations, in duplicate. Additionally, one or more additional cell line was tested in the same way.

[4] = test system: HCC44; experiment: Cell viability dose-response, HCC44; settings: Homo sapiens; for AC50: HCC44, Table 8, 12-point dose-response starting at 50 micromolar; for IC50: HCC44, Tables 3 and 4, read-out: IC50 (uM) vs indicated non-small cell lung cancer cell line HCC44
Protocol: as §2, §3, §4

[5] = test system: H2009; experiment: Cell viability dose-response, H2009; settings: Homo sapiens; for AC50: NCI-H2009, Table 8, 12-point dose-response starting at 50 micromolar; for IC50: NCI-H2009, Tables 3 and 4, read-out: IC50 (uM) vs indicated non-small cell lung cancer cell line H2009
Protocol: as §2, §3, §4

[6] = Tables 3 and 4, read-out: IC50 (uM) vs indicated non-small cell lung cancer cell line H2073
[7] = Homo sapiens, NCI-H2122, Tables 3 and 4, read-out: IC50 (uM) vs indicated non-small cell lung cancer cell line H2122
[8] = Homo sapiens, NCI-H2122, 12-point dose-response starting at 50 micromolar, 3-fold increments, in duplicate, read-out: toxicity data, H2122
[9] = Homo sapiens, NCI-H2073, 12-point dose-response starting at 50 micromolar, 3-fold increments, in duplicate, read-out: toxicity data, H2073

Compound	AC50 ([1]; Homo sapiens) [µM]	AC50 [4] [µM]	AC50 [5] [µM]	also measured
COC(=O)c1ccc(C(=O)Nc2nc3ccc(N)cc3s2)cc1 [SW001296-3]				IC50 ([1]; Tables 3 and 4, read-out: IC50 (uM) vs indicated non-small cell lung cancer cell line H2122): 18.5 µM; IC50 [2]: 28.6 µM; IC50 [3, 6]: 49.5 µM
O=c1c(-c2ccc(Cl)cc2)coc2cc(OCc3cnn(-c4ccccc4)c3)ccc12 [SW208738]	≥ 49.5	49.5	49.5	
O=c1c(-c2cccc(O)c2)coc2cc(OCc3cnn(-c4ccccc4)c3)ccc12 [SW208740]	21	49.5	39	
O=c1c(-c2ccc(O)cc2)coc2cc(OCc3cnn(-c4ccccc4)c3)ccc12 [SW208757-1]	≥ 49.5	49.5	5.63	
Cc1ccc(/C=C/c2coc3cc(OCc4cnn(-c5ccccc5)c4)ccc3c2=O)cc1 [SW208758-1]	≥ 49.5	49.5	16.5	
COc1ccc(-c2coc3cc(OCc4cnn(-c5ccccc5)c4)ccc3c2=O)cc1 [SW208759-1]	≥ 49.5	49.5	49.5	
O=c1c(-c2ccc(F)cc2F)coc2cc(OCc3cnn(-c4ccccc4)c3)ccc12 [SW208760-1]	0.11	49.5	20.7	
O=c1c(-c2ccc3ccccc3c2)coc2cc(OCc3cnn(-c4ccccc4)c3)ccc12 [SW208761-1]	≥ 49.5	49.5	32.4	
O=c1c(-c2ccc(F)c(F)c2)coc2cc(OCc3cnn(-c4ccccc4)c3)ccc12 [SW208762-1]	0.18	49.5	43.2	
O=c1c(-c2cc(C(F)(F)F)cc(C(F)(F)F)c2)coc2cc(OCc3cnn(-c4ccccc4)c3)ccc12 [SW208763-1]	0.08	1.36	3.26	
O=c1c(C2=CCCCC2)coc2cc(OCc3cnn(-c4ccccc4)c3)ccc12 [SW208764-1]	≥ 49.5	49.5	49.5	
CCOc1ccc(-c2coc3cc(OCc4cnn(-c5ccccc5)c4)ccc3c2=O)cc1 [SW208765-1]	≥ 49.5	49.5	16.5	
O=c1c(C2CC2)coc2cc(OCc3cnn(-c4ccccc4)c3)ccc12 [SW208766-1]	16.5	49.5	49.5	
COc1ccc(-c2coc3cc(OCc4cnn(-c5ccccc5)c4)ccc3c2=O)c(C)c1 [SW208767-1]	2.07	4.06	49.5	
O=c1c(C#Cc2ccccc2)coc2cc(OCc3cnn(-c4ccccc4)c3)ccc12 [SW208768-1]	24.8	16.5	19.9	
O=c1c(Cc2ccccc2)coc2cc(OCc3cnn(-c4ccccc4)c3)ccc12 [SW208769-1]	0.027	3.18	49.5	
Cn1c(NC(=O)c2ccc(C(=O)c3ccccc3)cc2)nc2ccccc21 [SW208770-1]				IC50 [1, 7]: 31.4 µM; IC50 [4]: 12.7 µM; IC50 [5]: 3.06 µM
O=C(Nc1nccs1)c1ccc(C(=O)c2ccccc2)cc1 [SW208771-1]				IC50 [1, 7]: 32.9 µM; IC50 [4]: 8.43 µM; IC50 [5]: 49.5 µM
Cn1ccc(=O)c2ccc(OCc3cnn(-c4ccccc4)c3)cc21 [SW208832-1]	7.56	49.5	7.51	
O=c1c(C(O)c2ccccc2)coc2cc(OCc3cnn(-c4ccccc4)c3)ccc12 (stereo not drawn) [SW208833-1]	0.216	9.86	8.3	
O=C(Nc1ncc(Cc2ccccc2)s1)c1ccc(C(=O)c2ccccc2)cc1 [SW208834]				IC50 [1, 7]: 3.55 µM; IC50 [4]: 49.5 µM; IC50 [5]: 16.5 µM
O=C(c1ccccc1)c1coc2cc(OCc3cnn(-c4ccccc4)c3)ccc2c1=O [SW208844-1]	0.864	23.7	30	

Compound	AC50 ([1]; Homo sapiens) [µM]	AC50 [4] [µM]	AC50 [5] [µM]	also measured
O=C(Nc1ncc(-c2ccccc2)s1)c1ccc(C(=O)c2ccccc2)cc1 [SW209017]				IC50 [1, 7]: 5.76 µM; IC50 [4]: 49.5 µM; IC50 [5]: 4.95 µM
O=C(Nc1nc(-c2ccccc2)cs1)c1ccc(C(=O)c2ccccc2)cc1 [SW209018]				IC50 [1, 7]: 4.73 µM; IC50 [4]: 49.5 µM; IC50 [5]: 14.8 µM
C#CCc1coc2cc(OCc3cnn(-c4ccccc4)c3)ccc2c1=O [SW209021-1]	0.846			AC50 [2]: 49.5 µM; AC50 ([3]; Homo sapiens): 49.5 µM
C=CCc1coc2cc(OCc3cnn(-c4ccccc4)c3)ccc2c1=O [SW209022-1]	0.323			AC50 [2]: 47.1 µM; AC50 ([3]; Homo sapiens): 49.5 µM
COc1ccc(CCNC(=O)C(=O)Nc2ccc(OCc3ccc(Br)cc3)cc2)cc1 [SW209048-1]				IC50 [1, 8]: 0.157 µM; IC50 [3, 9]: ≥ 49.5 µM
C#CCOc1ccc(C(=O)c2ccc(C(=O)Nc3nc4ccc(OC)cc4s3)cc2)cc1 [SW209049-1]				IC50 [1, 7]: 0.131 µM; IC50 [2]: 21 µM; IC50 [3, 6]: 81 µM
COc1ccc(CCNC(=O)C(=O)Nc2ccc(COc3ccc(Br)cc3)cc2)cc1 [SW209050-1]				IC50 [1, 8]: 0.031 µM; IC50 [3, 9]: 25.9 µM
COc1ccc(CCNC(=O)C(=O)Nc2ccc(Oc3ccc(Br)cc3)cc2)cc1 [SW209075-1]				IC50 [1, 8]: 0.029 µM; IC50 [3, 9]: 8.07 µM
O=C(Nc1nc2ccc(OCCCBr)cc2s1)c1ccc(C(=O)c2ccccc2)cc1 [SW 208235]				IC50 [1, 7]: ≥ 49.5 µM; IC50 [4]: 49.5 µM; IC50 [5]: 49.5 µM
O=C(Nc1nc2ccc(OCCCCBr)cc2s1)c1ccc(C(=O)c2ccccc2)cc1 [SW 208236]				IC50 [1, 7]: ≥ 49.5 µM; IC50 [4]: 49.5 µM; IC50 [5]: 49.5 µM
COc1cc2sc(NC(=O)c3ccc(C(=O)c4ccccc4)cc3)nc2cc1Br [SW 208237]				IC50 [1, 7]: 0.61 µM; IC50 [4]: 6.5 µM; IC50 [5]: 6.9 µM
O=c1c(Oc2ccccc2)coc2cc(OCc3cnn(-c4ccccc4)c3)ccc12 [SW 208586-1]	0.11	0.15	49.5	
Cc1oc2cc(OCc3cnn(-c4ccccc4)c3)ccc2c(=O)c1Oc1ccccc1F [SW 208587-1]	0.39	49.5	16.5	
O=c1c(Oc2ccccc2Cl)coc2cc(OCc3cnn(-c4ccccc4)c3)ccc12 [SW 208589-1]	0.12	49.5	4.76	
O=c1c(Oc2ccc(F)cc2)coc2cc(OCc3cnn(-c4ccccc4)c3)ccc12 [SW 208591-1]	0.15	0.07	16	
Cc1ccccc1Oc1coc2cc(OCc3cnn(-c4ccccc4)c3)ccc2c1=O [SW 208593-1]	0.11	> 15	> 15	
O=c1c(Oc2cccc(Cl)c2)coc2cc(OCc3cnn(-c4ccccc4)c3)ccc12 [SW 208594-1]	0.22	0.08	16.5	
Cc1cccc(Oc2coc3cc(OCc4cnn(-c5ccccc5)c4)ccc3c2=O)c1 [SW 208595-1]	0.2	0.1	16.5	
COc1ccc(Oc2coc3cc(OCc4cnn(-c5ccccc5)c4)ccc3c2=O)cc1 [SW 208596-1]	0.22	16.5	16.5	
O=c1ccoc2cc(OCc3cnn(-c4ccccc4)c3)ccc12 [SW 208629-1]	≥ 49.5	49.5	49.5	
c1ccc(-n2cc(COc3ccc4cc(OCc5cnn(-c6ccccc6)c5)ccc4c3)cn2)cc1 [SW 208630-1]	≥ 49.5	49.5	49.5	
O=c1c(-c2ccccc2)coc2cc(OCc3cnn(-c4ccccc4)c3)ccc12 [SW 208631-1]	0.28	49.5	49.5	
